Source: US20230321083A1, “Inhibitors of GPR174 and Uses Thereof” (Omeros Corporation, priority 2016, published 2023)

What was measured:
[1] = system: CTLA4 expression in human PBMC T cells; assay: CTLA4 expression on T cell subsets in human PBMC cultures; format: cell-based; conditions: 0.19-6.0 μM; one day post-stimulation; dose-dependent
Procedure: PBMC cells from a single donor were cultured overnight with additional irradiated antigen-presenting cells (APC) in the presence of various concentrations of GPR174 inhibitory compound #10 (0.019 to 6 μM) or equivalent concentrations of vehicle (DMSO). Anti-CD3 (OKT3) was then added to the cultures for an additional 24 hours. The cells were analyzed by flow cytometry for expression of FOXP3, CTLA-4, CD4, CD3, CD45RA and CD25.

human PBMCs = assay: Cytokines in culture supernatants of stimulated human PBMCs (ELISA / LEGENDplex); format: cell-based
Procedure: The effect of compound #10 on IL-2 and IFN-γ production in human PBMCs was determined as follows. PBMCs from a single donor were adjusted to a density of 2×10^6 cells/mL, stimulated with 100 ng/mL of anti-CD3 and 100 ng/mL of anti-CD28 antibodies and treated with 1 μM, 3 μM, or 10 μM of compound #10. Supernatant from these cells was taken on day 2 post-stimulation and the levels of IL-2 and IFN-γ were determined by ELISA assay using Ready-SET-Go ELISA kits from Affimetrix Ebioscience according to the manufacturer's instructions.
The effect of compound #10 on IL-2 production in human PBMCs was determined as follows. […] Supernatant from these cells was taken on day 3 post-stimulation and the levels of IL-2 were determined by ELISA assay using Ready-SET-Go™ ELISA kits from Affimetrix Ebioscience and LEGENDplex™ bead-based immunoassays from BioLegend according to the manufacturer's instructions.
The effect of compound #10 on IL-2 production in human PBMC from each donor was determined as follows. PBMC from each donor were adjusted to a density of 2×10^6 cells/mL, stimulated with 100 ng/mL of anti-CD3 and 100 ng/mL of anti-CD28 antibodies and treated with 30 μM compound #10. Supernatant from these cells was taken on day 2 post-stimulation and the levels of IL-2 were determined by ELISA assay using LEGENDplex™ bead-based immunoassays from BioLegend (San Diego, CA) according to the manufacturer's instructions.
The effect of compound #10 on the production of a panel of additional cytokines (interleukin 5 (IL-5), interleukin 13 (IL-13), interleukin 6 (IL-6), interleukin 9 (IL-9), interleukin 10 (IL-10), interferon gamma (IFN-γ), tumor necrosis factor alpha (TNF-α), interleukine 17A (IL-17A), interleukin 17F (IL-17F), interleukin 4 (IL-4) and interleukin 22 (IL-22)) in pooled human PBMC obtained from eight donors was determined as follows. PBMC from eight donors were pooled, then adjusted to a density of 2×10^6 cells/mL, stimulated with 100 ng/mL of anti-CD3 and 100 ng/mL of anti-CD28 antibodies and treated with 30 μM compound #10. Supernatant from these cells was taken on day 2 post-stimulation and the levels of IL-5, IL-13, IL-6, IL-9, IL-10, IFN-γ, TNF-α, IL-17A, IL-17F, IL-4 and IL-22 were determined by ELISA using LEGENDplex™ bead-based immunoassays from BioLegend (San Diego, CA) according to the manufacturer's instructions.

C57BL/6+DBA1 splenocytes = assay: Cytokines in C57BL/6 + DBA1 splenocyte co-culture; format: cell-based, mouse; conditions: 30 μM; day 6 after mixing
Procedure: In order to stimulate T cells in mice, splenocytes obtained from two different mouse strains, C57BL/6 and DBA1, were mixed in culture.
The effect of compound #10 on production of cytokines (IFN-γ, IL-5, TNF-α, IL-2, IL-6, IL-4, IL-10, IL-9, IL17A, IL17F, IL-21, IL-22 and IL-13) in mouse splenocyte co-cultures was determined as follows. Splenocytes obtained from two different mouse strains, C57BL/6 and DBA1, were mixed in culture in the presence or absence of 30 μM compound #10. Cytokine production of IFN-γ, IL-5, TNF-α, IL-2, IL-6, IL-4, IL-10, IL-9, IL-17A, IL-17F, IL-21, IL-22 and IL-13 was measured in the co-culture supernatant at day 4 and day 6 after mixing. Cytokine levels were determined by LEGENDplex™ bead-based immunoassays from BioLegend (San Diego, CA) according to the manufacturer's instructions.

ADBR2 = target: T1, ADBR2 (Homo sapiens, UniProt P07550); assay: CRE-Luc reporter Gs signaling assay, control receptor ADBR2; format: cell-based
T1 construct: host or cells: HEK293 or CHO cell lines (ATCC)
T1 sequence (P07550 whole entry): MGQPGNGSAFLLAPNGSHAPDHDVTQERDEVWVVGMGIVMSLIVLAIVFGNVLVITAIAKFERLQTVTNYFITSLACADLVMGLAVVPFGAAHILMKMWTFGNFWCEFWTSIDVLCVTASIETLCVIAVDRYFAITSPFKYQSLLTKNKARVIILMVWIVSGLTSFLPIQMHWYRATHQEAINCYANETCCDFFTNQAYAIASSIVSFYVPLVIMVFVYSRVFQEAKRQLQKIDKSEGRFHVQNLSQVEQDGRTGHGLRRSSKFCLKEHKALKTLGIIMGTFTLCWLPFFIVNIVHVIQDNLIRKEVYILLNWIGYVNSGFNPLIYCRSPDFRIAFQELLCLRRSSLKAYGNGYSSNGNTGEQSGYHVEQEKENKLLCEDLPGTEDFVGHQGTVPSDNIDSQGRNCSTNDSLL
Procedure: Compounds were tested in the reporter system with increasing concentrations of GPR174-interacting compounds. GPR174 construct pCMV6-XL4-GPR174 or ADBR2, reporter of interest, pCRE-Luc or GL4.29 (3000 ng), and TK-renilla as an internal control (10 ng) with lipofectamine 2000 (60 ug) (Invitrogen, CA) according to the manufacturer's directions.
The DNA/lipofectamine 2000 mix (3000 μL) was incubated at room temperature for 30 minutes and then added into a 10 cm culture dish (Corning, NY) containing 70-90% confluent cultured cells, typically HEK293 or CHO cell lines (ATCC, VA), in 15 mL of media. The cells were further incubated for 4-6 hours at 37° C. and then media were removed and cells were detached with 2 mL trypsin (Life Technologies, CA). Media (26 mL) were added to the detached cells and 120 μL of transfected cells were transferred to each well on a 96-well plate. Increasing concentration of each compound in DMSO (1.2 μl) was added to the cells after plating into the 96-well plate. The cells were further incubated at 37° C. for various times. The media were removed and the cells lysed. Luciferase and renilla activities were measured with the Dual-luciferase assay system (Promega, WI) according to the manufacturer's directions. Typically, lysis buffer (25 μL) was added to the cells and incubated at room temperature for 20-30 minutes to allow for the cells to lyse. The lysate (10 μL) was measured for luciferase and renilla activity with LARII and Stop&Glo reagent (50 μL each) with a SpectraMax L (Molecular Devices, CA). Data were analyzed with either Excel (Microsoft, WA) or Prism 4.03 (GraphPad, CA).
ADBR2 is a GPCR, like GPR174, that activates the Gs signaling pathway.

[2] = day 2, 30 μM, PBMC from eight donors, p<0.001
[3] = day 2, 30 μM, PBMC from eight donors, p<0.05

## CC1CCN(c2cc(N3CCN(S(=O)(=O)c4ccccc4)CC3)c([N+](=O)[O-])cc2F)CC1 [Compound 10]
[1]
  CTLA4 positive fraction of memory Treg (CD45RA−FOXP3+): reduced
  CTLA4 positive fraction of memory non-Treg (CD45RA−FOXP3−): reduced
  CTLA4 positive fraction of naïve non-Treg cells (CD45RA+FOXP3−): reduced
  CTLA-4 positive fraction of naïve Treg cells (CD45RA+FOXP3+): reduced
Human PBMCs; [2]
  IL-6 in culture supernatants (fold over vehicle): statistically significant fold increase
  IL-17A in culture supernatants (fold over vehicle): statistically significant fold decrease
Human PBMCs; [3]
  IFN-γ in culture supernatants (fold over vehicle): statistically significant fold increase
  IL-10 in culture supernatants (fold over vehicle): statistically significant fold increase
  TNF-α in culture supernatants (fold over vehicle): statistically significant fold increase
Human PBMCs; day 3 post-stimulation, 3, 10, 30, 60 μM, single donor
  IL-2 (pg/mL) in culture supernatants: increased IL-2 levels in culture supernatants in a dose-dependent manner
C57BL/6+DBA1 splenocytes
  fold induction of a panel of cytokines in splenocyte co-culture: strong alteration in quantities of cytokines
ADBR2
  effect on Gs pathway in the presence of ADBR2: did not inhibit the Gs pathway
